The target in the assay is T1, Cu,Zn-SOD (Cu,Zn-superoxide dismutase) (Bos taurus, UniProt P00442).
T1 construct: gene SOD1
Briefly: SOD kit (xanthine/xanthine oxidase, WST-1 formazan at […] nm) after […] h pre-incubation with chelator. The class given is biochemical. In general terms: Formazan colour is commonly taken as a measure of viable cells.

Where two headings read alike, the source gives them in different places. Bounds are passed on as bounds.

T1 sequence (P00442 2-152): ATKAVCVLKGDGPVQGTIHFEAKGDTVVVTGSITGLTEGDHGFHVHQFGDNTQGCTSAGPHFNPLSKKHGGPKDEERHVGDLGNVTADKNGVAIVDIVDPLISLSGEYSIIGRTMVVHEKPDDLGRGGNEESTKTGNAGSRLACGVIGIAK

`CC(C)(S)[C@@H](N)C(=O)O` [DPA, 3-mercapto-D-valine]: under “read-out: IC50”, the half-maximal inhibitory concentration (IC50) (commonly the concentration that inhibits the measured activity by half) lay in the range of 50 to 100 µM.
Regarding `[S]=[Mo](=[S])([SH])[SH]` [bcTTM, Bis-choline-tetrathiomolybdate], the IC50 was < 0.2 µM.

The values above are taken from paper PMC12473319, “TDMQ20 as A Drug Candidate for Wilson’s Disease: Comparison with D-Penicillamine, Trientine, and Tetrathiomolybdate In Vitro and In Mice” (Pharmaceutics, 2025).
